Measured values taken from ChEMBL document CHEMBL1201862, “PubChem BioAssay data set” (2004).
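These data come from cells grown in 96-well plates and exposed to compound for 48 hours at five concentrations. GI50: concentration for 50% inhibition of growth.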 Active and inactive are the calls of the source. No stated cut-off is given here; in the data, active = GI50 up to about 1.1 µM and inactive = higher.

How the values were obtained:
Assay in all cases: NCI tumour cell line growth inhibition, 48 h
[1] = tested on: NCI-H23
[2] = tested on: LOX IMVI
[3] = tested on: COLO 205
[4] = tested on: NCI-H460
[5] = tested on: OVCAR-3
[6] = tested on: OVCAR-8
[7] = tested on: OVCAR-5
[8] = tested on: M14
[9] = tested on: DU-145
[10] = tested on: MDA-MB-435
[11] = tested on: MDA-N
[12] = tested on: SN12C
[13] = tested on: HCT-116
[14] = tested on: MOLT-4
[15] = tested on: HOP-92
[16] = tested on: CAKI-1
[17] = tested on: HL-60
[18] = tested on: HT-29
[19] = tested on: MDA-MB-231
[20] = tested on: Malme-3M
[21] = tested on: HOP-62
[22] = tested on: K562
[23] = tested on: SF-539
[24] = tested on: U-251
[25] = tested on: UACC-62
[26] = tested on: HCT-15
[27] = tested on: NCI/ADR-RES
[28] = tested on: KM12
[29] = tested on: UACC-257
[30] = tested on: TK-10
[31] = tested on: HCC 2998
[32] = tested on: SW-620
[33] = tested on: SNB-19
[34] = tested on: EKVX
[35] = tested on: RPMI-8226
[36] = tested on: NCI-H226
[37] = tested on: MCF7
[38] = tested on: IGROV-1
[39] = tested on: RXF 393
[40] = tested on: SK-MEL-5
[41] = tested on: SF-295
[42] = tested on: Hs-578T
[43] = tested on: ACHN
[44] = tested on: OVCAR-4
[45] = tested on: T47D
[46] = tested on: NCI-H522
[47] = tested on: SK-OV-3
[48] = tested on: PC-3
[49] = tested on: SF-268
[50] = tested on: SR
[51] = tested on: SK-MEL-28
[52] = tested on: CCRF-CEM

**Q.** What does the source list for Cc1coc2c1C[C@@]1(C)[C@H](CCC[C@@H]1C)[C@H]2O?
**A.** GI50 [1]: 36.8 µM (inactive); GI50 [2]: 56.4 µM (inactive); GI50 [3]: 41.6 µM (inactive); GI50 [4]: > 100 µM (inactive); GI50 [5]: 22.6 µM (inactive); GI50 [6]: 35.4 µM (inactive); GI50 [7]: 37.2 µM (inactive); GI50 [8]: 60.4 µM (inactive); GI50 [9]: 11.9 µM (inactive); GI50 [10]: 30.1 µM (inactive); GI50 [11]: 49.9 µM (inactive); GI50 [12]: 15.6 µM (inactive); GI50 [13]: 29.6 µM (inactive); GI50 [14]: 18 µM (inactive); GI50 [15]: 25.9 µM (inactive); GI50 [16]: 44.5 µM (inactive); GI50 [17]: 16.4 µM (inactive); GI50 [18]: 33.3 µM (inactive); GI50 [19]: 20.7 µM (inactive); GI50 [20]: 18.8 µM (inactive); GI50 [21]: 29.4 µM (inactive); GI50 [22]: 28.4 µM (inactive); GI50 [23]: 25.1 µM (inactive); GI50 [24]: 42.4 µM (inactive); GI50 [25]: 69.5 µM (inactive); GI50 [26]: 36.2 µM; GI50 [27]: 24.3 µM (inactive); GI50 [28]: > 100 µM (inactive); GI50 [29]: 31.8 µM (inactive); GI50 [30]: 54 µM (inactive); GI50 [31]: 11.4 µM (inactive); GI50 [32]: 37.7 µM (inactive); GI50 [33]: > 100 µM (inactive); GI50 [34]: 58.7 µM (inactive); GI50 [35]: 18.1 µM (inactive); GI50 [36]: 15.5 µM (inactive); GI50 [37]: 52.7 µM (inactive); GI50 [38]: 19.8 µM (inactive); GI50 [39]: 20.8 µM (inactive); GI50 [40]: 15.1 µM (inactive); GI50 [41]: 30.9 µM (inactive); GI50 [42]: 71.1 µM (inactive); GI50 [43]: 24.7 µM (inactive); GI50 [44]: 28.1 µM (inactive); GI50 [45]: 19.9 µM (inactive); GI50 [46]: 22.4 µM (inactive); GI50 [47]: > 100 µM (inactive); GI50 [48]: 19.1 µM (inactive); GI50 [49]: 16.9 µM (inactive); GI50 [50]: 14.6 µM (inactive); GI50 [51]: 29.5 µM (inactive); GI50 [52]: 28.4 µM (inactive)
